# What was measured:
# KK mouse = experiment: Measurement of Hypoglycemic Effect, KK mouse; format: in vivo; conditions: for % decrease (percentage of reducing blood glucose): KK mouse, 30 mg/kg, oral, 24 hours after administration
# Procedure: (§1) KK mouse and KKAy mouse, NIDDM models (male, 6-7 weeks old) (Nakamura, Proc. Jpn. Acad. 38, 348-352, 1962; Iwatsuka et al. Endocrinol Jpn, 17, 23-35, 1970) were purchased from Nihon Clea. They were allowed free access to high-calories' chow (CMF, Oriental Yeast) and water. Around 40 g-weighted mice were examined.
# (§2) Blood (20 μl) collected from the retro-orbital sinus was diluted in 60 units heparin sodium-solution and was centrifuged in a microfuge. The supernatant was assayed. The glucose concentration was determined by glucose oxidase method (Glucose Analyzer II, Beckman).
# (§3) All test-compounds suspended in 0.5% carboxy-methyl cellulose (CMC)-saline were orally administered in mice. Before and 24 hours after the administration, blood was collected from the retro-orbital sinus, and a blood glucose value was measured in the above-mentioned manner. The hypoglycemic activity was expressed by the percentage of reducing blood glucose calculated before and 24 hours after the administration.
# KKA^y mouse = experiment: Measurement of Hypoglycemic Effect, KKAy mouse; format: in vivo; conditions: oral, 24 hours after administration, read-out: % decrease (percentage of reducing blood glucose)
# Procedure: as §1, §2, §3
# [1] = tested on: bovine serum albumin (BSA); experiment: Measurement of Anti-Glycation Effect; format: biochemical; conditions: for % decrease (anti-glycation effect, fluorescence per mg protein, percentage of the control): 5% BSA-0.5M G6P, 37° C., 10 day-incubation; for anti-glycation activities (in words): Test Example 2
# Procedure: Because glycated protein is fluorescent, the amount of glycated protein can be determined using fluorescence, according to the previous reports (Doi et al., Proc. Natl. Acad. Sci. U.S.A., 89, 2873-2877, 1992: Mitsuhashi et al., Diabetes, vol. 42, 826-832, 1993). The experimental procedure was modified as follows. Five percent of bovine serum albumin (BSA) containing 0.5M glucose-6-phosphate-2Na (5% BSA-0.5M G6P) was filtration-sterilized (with 0.45 μm-pore size filter) and was incubated at 37° C.; positive control was incubated with 1% dimethyl sulfoxide (DMSO) at 37° C.; blank was incubated at 4° C. All test-compounds dissolved in DMSO (final concentration of DMSO was less than 1%) were added in 5% BSA-0.5M G6P. After 10 day-incubation 5% BSA-0.5M G6P with a compound, positive control and blank were dialyzed against 2L phosphate buffered saline for 24 hours (fractional molecular weight: 12,000-14,000).The dialyzed solution was diluted in water 4 times and was determined the fluorescence (ex. 370 nm-em. 440 nm). The protein concentration of the dialyzed solution (10 μL of which was diluted to 20 times with distilled water) was determined by Lowry-method and the fluorescence was expressed per mg protein. Control (100%) was positive control minus blank. Anti-glycation effect was calculated as the percentage of the control.
# [2] = tested on: AGE protein on arterial walls; conditions: rat suffering from diabetes; Science, vol. 232, p. 1629 (1986); cited from earlier work
SMILES,% decrease (percentage of reducing blood glucose) (KK mouse) [%],inhibition in vivo at 30 mg/kg (KKA^y mouse) [%],"% decrease (anti-glycation effect, fluorescence per mg protein, percentage of the control) ([1]; 100 μg/ml) [%]",further results
Cc1oc(-c2ccccc2)nc1CCC(=O)c1ccc(CC2SC(=O)NC2=O)cc1 (stereo not shown) [CP-86325],39.4,39.5,10.3,anti-glycation activities (in words) [1]: did not exhibit anti-glycation activities
Cc1c(C)c2c(c(C)c1O)CCC(C)(COc1ccc(CC3SC(=O)NC3=O)cc1)O2 (stereo not shown) [CS-045],24.2,-3,10.1,anti-glycation activities (in words) [1]: did not exhibit anti-glycation activities
"Cc1oc(-c2ccccc2)nc1C(=O)COc1ccc(C=C2SC(=O)NC2=O)nc1 [I-1a-1, 5-((5-(2-oxo-2-(2-phenyl-5-methyl-4-oxazolyl)ethoxy)-2-pyridyl)methylidene)thiazolidin-2,4-dione]",48.9,48.6,42.3,
COCOc1ccc(C=C2SC(=O)NC2=O)nc1 [I-1a-2],,,24.1,
O=C1NC(=O)C(=Cc2ccc(OCc3ccccc3)cn2)S1 [I-1a-3],,,34.1,
Cc1oc(-c2ccc(-c3ccccc3)cc2)nc1C(O)COc1ccc(C=C2SC(=O)NC2=O)nc1 (stereo not shown) [I-1a-43],,47.3,,
"Cc1oc(-c2ccccc2)nc1C(=O)COc1ccc(CC2SC(=O)NC2=O)nc1 (stereo not shown) [I-2a-1, 5-((5-(2-oxo-2-(2-phenyl-5-methyl-4-oxazolyl)ethoxy)-2-pyridyl)methyl)thiazolidin-2,4-dione]",65.1,50,,
COCOc1ccc(CC2SC(=O)NC2=O)nc1 (stereo not shown) [I-2a-2],,39.9,,
Cc1cccc(-c2nc(C(=O)COc3ccc(CC4SC(=O)NC4=O)nc3)c(C)o2)c1 (stereo not shown) [I-2a-5],,47.7,,
Cc1oc(-c2ccc(F)cc2)nc1C(O)COc1ccc(CC2SC(=O)NC2=O)nc1 (stereo not shown) [I-2a-30],,37.2,,
Cc1oc(-c2ccc(-c3ccccc3)cc2)nc1C(O)COc1ccc(CC2SC(=O)NC2=O)nc1 (stereo not shown) [I-2a-31],,52.2,,
Cc1ccc(-c2nc(C(O)COc3ccc(CC4SC(=O)NC4=O)nc3)c(C)o2)cc1 (stereo not shown) [I-2a-32],,35.4,,
N=C(N)NN [aminoguanidine],,,,"% decrease (anti-glycation effect, fluorescence per mg protein, percentage of the control) ([1]; 1 mM): 21.4%; % decrease (anti-glycation effect, fluorescence per mg protein, percentage of the control) ([1]; 10 mM): 48.9%; % decrease (anti-glycation effect, fluorescence per mg protein, percentage of the control) ([1]; 100 mM): 80.2%; prevention of formation of AGE protein on arterial walls (in words) [2]: prevents formation of AGE protein on arterial walls"
COc1ccc(Cl)cc1C(=O)NCCc1ccc(S(=O)(=O)NC(=O)NC2CCCCC2)cc1 [glibenclamide],-3.6,-2.5,,"hypoglycemic activity (in words) (KK mouse; Test Example 1, KK and KKAy mouse, 30 mg/kg oral): did not exhibit hypoglycemic activity"
